Results on 15 compounds are retold here after patent US9802960B2 (MILLENNIUM PHARMACEUTICALS, INC., priority 2014, dated 2017).

As a reminder, the inhibition is the percentage by which the read-out fell short of the control.

The target of the assay is Human VPS34 (Homo sapiens (Human), UniProt Q8NEB9). Put plainly: Human VPS34 enzyme assay (Adapta TR-FRET). To be noted: compound concentration 1.11 μM; read-out: Percent Inhibition. Type of assay: biochemical. In general terms: In TR-FRET formats the signal depends on donor and acceptor labels being close together.
Sequence of Human VPS34 (Q8NEB9 whole entry): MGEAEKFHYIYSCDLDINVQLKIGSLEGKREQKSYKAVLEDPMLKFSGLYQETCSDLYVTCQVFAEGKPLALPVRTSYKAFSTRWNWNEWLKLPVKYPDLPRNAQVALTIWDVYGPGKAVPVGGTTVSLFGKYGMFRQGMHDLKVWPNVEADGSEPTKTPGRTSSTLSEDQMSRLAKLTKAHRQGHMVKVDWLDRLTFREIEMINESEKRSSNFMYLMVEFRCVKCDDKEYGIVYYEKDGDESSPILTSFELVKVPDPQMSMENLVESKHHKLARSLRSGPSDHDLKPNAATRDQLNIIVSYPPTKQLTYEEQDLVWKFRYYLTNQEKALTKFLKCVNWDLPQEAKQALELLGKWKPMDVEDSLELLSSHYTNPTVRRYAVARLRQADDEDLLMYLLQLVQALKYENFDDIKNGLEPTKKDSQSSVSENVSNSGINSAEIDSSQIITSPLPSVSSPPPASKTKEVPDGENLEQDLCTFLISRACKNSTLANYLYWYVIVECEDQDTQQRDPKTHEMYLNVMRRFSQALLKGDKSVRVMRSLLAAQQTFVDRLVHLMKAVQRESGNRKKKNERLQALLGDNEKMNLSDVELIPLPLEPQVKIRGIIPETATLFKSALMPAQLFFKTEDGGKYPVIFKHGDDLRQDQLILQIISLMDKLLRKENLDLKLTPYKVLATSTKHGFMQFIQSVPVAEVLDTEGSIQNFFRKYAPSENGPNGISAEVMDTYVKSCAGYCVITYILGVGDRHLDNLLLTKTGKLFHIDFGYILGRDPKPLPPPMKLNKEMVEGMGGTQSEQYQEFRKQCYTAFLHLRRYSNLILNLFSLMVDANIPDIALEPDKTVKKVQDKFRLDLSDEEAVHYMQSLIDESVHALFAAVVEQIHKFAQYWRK
With `CC(=O)Nc1cc(-c2cnc(N)c(S(=O)(=O)Cc3ccccc3F)c2)ccn1` [Compound I-197, N-{6-amino-5-[(2-fluorobenzyl)sulfonyl]-3,4′-bipyridin-2′-yl}acetamide], the inhibition at 1.11 µM is greater than 99%. The result for `Cc1nccc(Nc2cc(-c3cncc(C(C)OCc4ccccn4)c3)ccn2)n1` (stereo not drawn) [Compound I-349, N-(2-methylpyrimidin-4-yl)-5-[1-(pyridin-2-ylmethoxy)ethyl]-3,4′-bipyridin-2′-amine] reads 94%. For `CC(=O)Nc1cc(-c2cnc(Cl)c(NS(=O)(=O)c3cc(Cl)ccc3Cl)c2C)ccn1` [Compound I-401, N-(6-chloro-5-{[(2,5-dichlorophenyl)sulfonyl]amino}-4-methyl-3,4′-bipyridin-2′-yl)acetamide], the inhibition at 1.11 µM was greater than 99%. Regarding `CC(=O)Nc1cc(-c2cnc(C)c(Nc3nc4ccccc4o3)c2)ccn1` [Compound I-392, N-[5-(1,3-benzoxazol-2-ylamino)-6-methyl-3,4′-bipyridin-2′-yl]acetamide], the inhibition at 1.11 µM was 82%. The result for `Cc1nccc(Nc2cc(-c3cnc(C)c(C(=O)N4CCCCC4)c3)ccn2)n1` [Compound I-262, {6-methyl-2′-[(2-methylpyrimidin-4-yl)amino]-3,4′-bipyridin-5-yl}(piperidin-1-yl)methanone] reads 81%.

Consider `CC(=O)Nc1cc(-c2cnc(C)c(NS(=O)(=O)N3CCC(C)(C)CC3)c2)ccn1` [Compound I-483, N-(5-{[(4,4-dimethylpiperidin-1-yl)sulfonyl]amino}-6-methyl-3,4′-bipyridin-2′-yl)acetamide], for which the inhibition at 1.11 µM is greater than 99%. As to `CCc1ccc(S(=O)(=O)Nc2cc(-c3ccnc(NC(C)=O)c3)cnc2C)cc1` [Compound I-44, N-(5-{[(4-ethylphenyl)sulfonyl]amino}-6-methyl-3,4′-bipyridin-2′-yl)acetamide], the inhibition at 1.11 µM is greater than 99%.

For the compound `Cc1c(-c2ccnc(Nc3ccnc(C4CC4)n3)c2)cnc(Cl)c1C(=O)N1CC(C)(C)C1` [Compound I-466, {6-chloro-2′-[(2-cyclopropylpyrimidin-4-yl)amino]-4-methyl-3,4′-bipyridin-5-yl}(3,3-dimethylazetidin-1-yl)methanone], the inhibition at 1.11 µM came out at 92%. As for `CC(=O)Nc1cc(-c2cncc(C(=O)/C=C/c3ccc(F)cc3)c2)ccn1` [Compound I-198, N-{5-[(2E)-3-(4-fluorophenyl)prop-2-enoyl]-3,4′-bipyridin-2′-yl}acetamide], the inhibition at 1.11 µM turned out to be 68%. The figure for `CC(=O)Nc1cc(-c2ccc(S(=O)(=O)Nc3cc(-c4ccnc(NC(C)=O)c4)cnc3C)c(F)c2)ccn1` [Compound I-86, N-(4-{4-[(2′-acetamido-6-methyl-3,4′-bipyridin-5-yl)sulfamoyl]-3-fluorophenyl}pyridin-2-yl)acetamide] is greater than 99%; for `CC(=O)Nc1cc(-c2cncc(S(=O)(=O)N3CCCC3)c2)ccn1` [Compound I-47, N-[5-(pyrrolidin-1-ylsulfonyl)-3,4′-bipyridin-2′-yl]acetamide] it is greater than 99%. `CC(=O)Nc1cc(-c2cnc(C)c(NS(C)(=O)=O)c2)ccn1` [Compound I-167, N-{6-methyl-5-[(methylsulfonyl)amino]-3,4′-bipyridin-2′-yl}acetamide]: the inhibition at 1.11 µM was greater than 99%. For `CC(=O)Nc1cc(-c2cnc(C)c(N3CCCS3(=O)=O)c2)ccn1` [Compound I-88, N-[5-(1,1-dioxidoisothiazolidin-2-yl)-6-methyl-3,4′-bipyridin-2′-yl]acetamide], the inhibition at 1.11 µM is greater than 99%. The result for `CC(=O)Nc1cc(-c2cnc(C)c(NS(=O)(=O)c3cccc4ccccc34)c2)ccn1` [Compound I-78, N-{6-methyl-5-[(1-naphthylsulfonyl)amino]-3,4′-bipyridin-2′-yl}acetamide] reads greater than 99%.

With `COC(=O)Nc1cc(-c2cnc(C)c(N3CCCS3(=O)=O)c2)ccn1` [Compound I-146, methyl[5-(1,1-dioxidoisothiazolidin-2-yl)-6-methyl-3,4′-bipyridin-2′-yl]carbamate], the inhibition at 1.11 µM was greater than 99%.
